Laboratory results as given in patent US6781015B2, “Aminobenzophenones and photopolymerizable compositions including the same” (Albemarle Corporation, priority 1997, dated 2004).
“And” between values parts separate entries of the source, which are not always exact repeats. Equal entries are not always repeated.

System: Salmonella typhimurium tester strain TA98
Test: Salmonella/Mammalian-Microsome Reverse Mutation Screening Assay (Ames Test)
Format: cell-based
Parameters: key to Background lawn: 1 = normal; 2 = slightly reduced; 3 = moderately reduced; 4 = extremely reduced; 5 = absent; 6 = obscured by precipitate; sp = slight precipitate; mp = moderate precipitate (requires hand count); hp = heavy precipitate (requires hand count)
Details: for Ames Test outcome (mutagenicity): tester strain TA98 in the presence of S9 mix
Method: Mutagenicity can be measured by a variety of assays. The most commonly used method is the Salmonella/Mammalian-Microsome Reverse Mutation Screening Assay (Ames Test), which commonly uses four or five strains of Salmonella bacteria to detect different types of mutations.
TMMK, TEMK and MEAB were evaluated for the ability to induce reverse mutations at the histidine locus in the genome of a specific Salmonella typhimurium tester strain in the presence of an exogenous metabolic activation system of mammalian microsomal enzymes derived from Aroclor™-induced rat liver (S9). The tester strain used in the mutagenicity assay was Salmonella typhimurium tester strain TA98 with added activation. The assay was conducted using eight doses of the test article, along with the appropriate vehicle and positive controls in the presence of S9 mix (S9 homogenate was purchased from Molecular Toxicology, Inc., Annapolis, Md. 21401, Batch 0646, 43.4 mg of protein per ml). Positive controls were also plated in the absence of S9 mix. All doses of test article, vehicle, and positive controls were plated in triplicate.
The test article TMMK was stored at room temperature. Acetone (CAS# 67-64-1, Fisher Scientific Co., Lot 961140) was used as the vehicle. At 20 mg per ml, which was the most concentrated stock solution which could be prepared, the test article formed a clear, light yellow solution. The test article remained a solution in all succeeding dilutions prepared for the mutagenicity assay. The maximum aliquot of acetone which can be used in the test system is 200 μl. Thus, the maximum concentration which could be tested was 4,000 μg per plate. The test article and vehicle controls were plated using a 200 μl plating aliquot. Positive control articles were plated using 50 μl plating aliquot.
The test article TEMK was stored at room temperature. Acetone (CAS# 67-64-1, Fisher Scientific Co., Lot 961140) was used as the vehicle. At 100 mg per ml, which was the most concentrated stock solution prepared, the test article formed a clear, yellow solution. The test article remained a solution in all succeeding dilutions prepared for the mutagenicity assay. The test article, vehicle controls and positive control articles were plated using a 50 μl plating aliquot.
The test article MEAB was stored at room temperature. Acetone (CAS#67-64-1, Fisher Scientific Co., Lot 961140) was used as the vehicle. At 25 mg per ml, which was the most concentrated stock solution prepared, the test article formed a clear, light yellow solution. The test article remained a solution in all succeeding dilutions prepared for the mutagenicity assay. The test article and vehicle controls were plated using a 200 μl plating aliquot. Positive control articles were plated using a 50 μl plating aliquot.
The data are presented as individual plate counts along with a mean and standard deviation.

[1] = TA98, rat liver S9, 3.33 μg/plate
[2] = TA98, rat liver S9, 3.33 μg/plate, plates 1-3
[3] = TA98, rat liver S9, 10.0 μg/plate
[4] = TA98, rat liver S9, 10.0 μg/plate, plates 1-3
[5] = TA98, rat liver S9, 33.3 μg/plate
[6] = TA98, rat liver S9, 33.3 μg/plate, plates 1-3
[7] = TA98, rat liver S9, 100 μg/plate
[8] = TA98, rat liver S9, 100 μg/plate, plates 1-3
[9] = TA98, rat liver S9, 333 μg/plate
[10] = TA98, rat liver S9, 333 μg/plate, plates 1-3
[11] = TA98, rat liver S9, 1000 μg/plate
[12] = TA98, rat liver S9, 1000 μg/plate, plates 1-3
[13] = TA98, rat liver S9, 3330 μg/plate
[14] = TA98, rat liver S9, 3330 μg/plate, plates 1-3
[15] = TA98, rat liver S9, 5000 μg/plate
[16] = TA98, rat liver S9, 5000 μg/plate, plates 1-3
[17] = Table 1, TA98, rat liver S9, 3.33 μg/plate
[18] = Table 1, TA98, rat liver S9, 10.0 μg/plate
[19] = Table 1, TA98, rat liver S9, 33.3 μg/plate
[20] = Table 1, TA98, rat liver S9, 100 μg/plate
[21] = Table 1, TA98, rat liver S9, 333 μg/plate
[22] = Table 1, TA98, rat liver S9, 1000 μg/plate
[23] = Table 1, TA98, rat liver S9, 3330 μg/plate
[24] = Table 1, TA98, rat liver S9, 5000 μg/plate
[25] = Table 2 summary, TA98, rat liver S9, 3.33 μg/plate
[26] = Table 2 summary, TA98, rat liver S9, 10.0 μg/plate
[27] = Table 2 summary, TA98, rat liver S9, 33.3 μg/plate
[28] = Table 2 summary, TA98, rat liver S9, 100 μg/plate
[29] = Table 2 summary, TA98, rat liver S9, 333 μg/plate
[30] = Table 2 summary, TA98, rat liver S9, 1000 μg/plate
[31] = Table 2 summary, TA98, rat liver S9, 3330 μg/plate
[32] = Table 2 summary, TA98, rat liver S9, 5000 μg/plate

Structure (SMILES)	Mean revertants per plate [1] [revertants per plate]	Individual plate counts, revertants per plate [2]	Mean revertants per plate [3] [revertants per plate]	Individual plate counts, revertants per plate [4]	Mean revertants per plate [5] [revertants per plate]	Individual plate counts, revertants per plate [6]	Mean revertants per plate [7] [revertants per plate]	Individual plate counts, revertants per plate [8]	Mean revertants per plate [9] [revertants per plate]	Individual plate counts, revertants per plate [10]	Mean revertants per plate [11] [revertants per plate]	Individual plate counts, revertants per plate [12]	Mean revertants per plate [13] [revertants per plate]	Individual plate counts, revertants per plate [14]	Mean revertants per plate [15] [revertants per plate]	Individual plate counts, revertants per plate [16]	Background lawn [17]	Background lawn [18]	Background lawn [19]	Background lawn [20]	other results
Nc1ccc2cc3ccccc3cc2c1 [2-aminoanthracene]																					Background lawn (Table 1, positive control, TA98, rat liver S9, 2.5 μg/plate, in the TMMK, TEMK and MEAB runs): 1; Background lawn (Table 2 summary, positive control, TA98, rat liver S9, 2 5 μg/plate, in the TMMK, TEMK and MEAB runs): 1; Individual plate counts, revertants per plate (positive control, TA98, rat liver S9, 2.5 μg/plate, plates 1-3, in the TMMK, TEMK and MEAB runs): 1053 revertants per plate and 1225 revertants per plate and 1226 revertants per plate and 920 revertants per plate and 932 revertants per plate and 1264 revertants per plate and 1032 revertants per plate and 1133 revertants per plate and 1196 revertants per plate; Mean revertants per plate (positive control, TA98, rat liver S9, 2 5 μg/plate, in the TMMK, TEMK and MEAB runs): 968 revertants per plate and 1143 revertants per plate and 1216 revertants per plate
CCN(C)c1ccc(C(=O)c2ccc(N(C)CC)cc2)cc1 [MEAB, 4,4′-bis(methylethylamino)benzophenone]	19	21 revertants per plate and 22 revertants per plate and 13 revertants per plate	21	28 revertants per plate and 11 revertants per plate and 25 revertants per plate	24	25 revertants per plate and 24 revertants per plate (2×)	19	18 revertants per plate and 20 revertants per plate (2×)	24	31 revertants per plate and 19 revertants per plate and 21 revertants per plate	27	23 revertants per plate and 21 revertants per plate and 36 revertants per plate	19	14 revertants per plate and 17 revertants per plate and 27 revertants per plate	24	23 revertants per plate (2×) and 27 revertants per plate	1	1	1	1 sp	Background lawn [21]: 1 mp; Background lawn [22]: 1 mp; Background lawn [23]: 1 hp; Background lawn [24]: 1 hp; Background lawn [25]: 1; Background lawn [26]: 1; Background lawn [27]: 1; Background lawn [28]: 1 sp; Background lawn [29]: 1 mp; Background lawn [30]: 1 mp; Background lawn [31]: 1 hp; Background lawn [32]: 1 hp; Ames Test outcome (mutagenicity): did not cause a positive increase
CCN(CC)c1ccc(C(=O)c2ccc(N(CC)CC)cc2)cc1 [TEMK, 4,4′-bis(diethylamino)benzophenone]	25	22 revertants per plate (2×) and 30 revertants per plate	25	30 revertants per plate and 24 revertants per plate and 20 revertants per plate	18	13 revertants per plate and 23 revertants per plate and 19 revertants per plate	26	28 revertants per plate and 26 revertants per plate and 24 revertants per plate	19	20 revertants per plate and 17 revertants per plate and 19 revertants per plate	24	32 revertants per plate and 23 revertants per plate and 17 revertants per plate	22	27 revertants per plate and 15 revertants per plate and 25 revertants per plate	22	27 revertants per plate and 19 revertants per plate (2×)	1	1	1	1	Background lawn [21]: 1 sp; Background lawn [22]: 1 mp; Background lawn [23]: 1 mp; Background lawn [24]: 1 mp; Background lawn [25]: 1; Background lawn [26]: 1; Background lawn [27]: 1; Background lawn [28]: 1; Background lawn [29]: 1 sp; Background lawn [30]: 1 mp; Background lawn [31]: 1 mp; Background lawn [32]: 1 mp; Ames Test outcome (mutagenicity): did not cause a positive increase
